Where two headings read alike, the source gives them in different places.
Experiments:
[1] = biological target: T1, MetC (Corynebacterium glutamicum, UniProt Q93QC6); type: biochemical; conditions: for Cleavage by MetC: MetC added to MetB assay products after MetB removal, HPLC and photometric SH-group assay
T1 construct: His-Tag (N); made in house; host or cells: Escherichia coli
T1 sequence (Q93QC6 1-368): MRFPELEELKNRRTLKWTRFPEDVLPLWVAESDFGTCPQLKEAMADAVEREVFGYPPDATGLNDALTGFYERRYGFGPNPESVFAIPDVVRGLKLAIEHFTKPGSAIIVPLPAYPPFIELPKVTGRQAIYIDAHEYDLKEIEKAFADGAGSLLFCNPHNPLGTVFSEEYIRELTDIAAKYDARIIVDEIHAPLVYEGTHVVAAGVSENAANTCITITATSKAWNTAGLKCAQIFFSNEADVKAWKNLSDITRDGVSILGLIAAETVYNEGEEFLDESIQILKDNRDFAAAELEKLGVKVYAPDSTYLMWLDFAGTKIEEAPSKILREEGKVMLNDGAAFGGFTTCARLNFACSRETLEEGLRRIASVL
Method: (§1) Overexpression and purification of enzymes. MetB and MetC of C. glutamicum were cloned in the vector pQE30 (Qiagen). Expression with this vector comprises the addition of a His-Tag to the N-terminus of the expressed protein. Escherichia coli was transformed with the plasmid and selected by ampicillin resistance (100 μg/mL). Transformed E. coli was cultivated (100 μg/mL ampicillin, 37° C., 230 rpm) on terrific broth (Losen et al., Biotechnol Prog 2004, 204, 1062-8) and induced at an optical density of 1 (600 nm) by addition of 1 mM isopropyl thiogalactoside (final concentration). The cells were harvested by centrifugation (4225 g, 15 min, 2° C.) after 16 h of induced growth, washed and resuspended in phosphate buffer (100 mM, 100 μM pyridoxal phosphate, 1 mg/mL DNAse 1, pH 7.4 at 4° C.) and extracted by sonication (5×15 sec, 20 micron). The crude extracts were separated from cell debris by centrifugation (30 min, 2° C., and 20000 g). […] After the protein was applied to the column, it was washed with 10 vol. of 0.02 M sodium phosphate buffer. Elution was carried out with a linear gradient with 0.02 M sodium phosphate buffer (pH 7.4) containing 0.5 M NaCl and 0.5 M imidazol. The fractions containing the protein were checked for purity with SDS-PAGE and then pooled together. Imidazole was separated from the proteins by ultrafiltration.
In vitro assays of MetB and MetC. Activity of MetB and MetC was followed photometrically (Helios α, Thermo Electronic, Dreieich, Germany). Enzyme activities were measured by increase or decrease of free SH-groups using Ellman's reagent (Extinction at 412 nm) (Ellman and Lysko, 1979). The assay mixtures contained 1.25 mM cysteine or homocysteine and 3 mM O-acetyl homoserine for MetB-assays and 1.25 mM cystathionine or about 1.25 mM homolanthionine for MetC-assays. Homolanthionine was not commercially available. The MetC-assay was therefore carried out using the products of the MetB-assay. MetB was removed by ultrafiltration. Thus, the homolanthionine concentration could not be adjusted in the assays. […]

[2] = biological target: MetC (Escherichia coli, UniProt P06721); conditions: Dwivedi et al. 1982, cited from earlier work
[3] = biological target: MetC (Salmonella typhimurium, UniProt P18949); conditions: read-out: MetC Km; S. thyphimurium MetC; Dwivedi et al. 1982; cited from earlier work
[4] = biological target: MetC (Bordetella avium, UniProt Q07703); conditions: read-out: MetC Km; B. avium MetC; Gentry-Weeks et al. 1993; cited from earlier work
[5] = biological target: T2, MetB (Corynebacterium glutamicum, UniProt Q79VD9); test: In vitro assay of MetB, Km from Lineweaver-Burk plots; type: biochemical; conditions: C. glutamicum MetB, with O-acetyl homoserine, this study
T2 sequence (Q79VD9 1-386): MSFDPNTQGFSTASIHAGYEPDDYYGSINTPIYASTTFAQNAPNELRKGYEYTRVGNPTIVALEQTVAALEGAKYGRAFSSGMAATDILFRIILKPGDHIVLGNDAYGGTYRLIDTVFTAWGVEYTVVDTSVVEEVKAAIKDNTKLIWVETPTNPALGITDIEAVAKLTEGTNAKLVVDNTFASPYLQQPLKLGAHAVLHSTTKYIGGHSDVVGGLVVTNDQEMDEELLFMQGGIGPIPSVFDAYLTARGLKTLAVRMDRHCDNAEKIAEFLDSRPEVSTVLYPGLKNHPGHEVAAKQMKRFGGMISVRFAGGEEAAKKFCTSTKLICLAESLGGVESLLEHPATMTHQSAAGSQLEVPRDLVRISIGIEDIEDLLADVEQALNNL
Method: as §1, with “The fractions containing the protein were checked for purity with SDS-PAGE and then pooled together. Imidazole was separated from the proteins by ultrafiltration.” left out
In vitro assays of MetB and MetC. […] Enzyme activities were measured by increase or decrease of free SH-groups using Ellman's reagent (Extinction at 412 nm) (Ellman and Lysko, 1979). […]

[6] = biological target: MetB (Escherichia coli, UniProt P00935); conditions: E. coli MetB; Holbrook et al. 1990; cited from earlier work
[7] = tested on: MetB; conditions: read-out: MetB Km; Spinach MetB; Ravanel et al. 1995; cited from earlier work
[8] = substrate: N[C@@H](CCS)C(=O)O; test: purified protein, by the assay type; conditions: other: C. glutamicum MetB, with O-acetyl homoserine, this study; 37.0 °C

MetC (Escherichia coli, UniProt P06721), sequence (P06721 2-395): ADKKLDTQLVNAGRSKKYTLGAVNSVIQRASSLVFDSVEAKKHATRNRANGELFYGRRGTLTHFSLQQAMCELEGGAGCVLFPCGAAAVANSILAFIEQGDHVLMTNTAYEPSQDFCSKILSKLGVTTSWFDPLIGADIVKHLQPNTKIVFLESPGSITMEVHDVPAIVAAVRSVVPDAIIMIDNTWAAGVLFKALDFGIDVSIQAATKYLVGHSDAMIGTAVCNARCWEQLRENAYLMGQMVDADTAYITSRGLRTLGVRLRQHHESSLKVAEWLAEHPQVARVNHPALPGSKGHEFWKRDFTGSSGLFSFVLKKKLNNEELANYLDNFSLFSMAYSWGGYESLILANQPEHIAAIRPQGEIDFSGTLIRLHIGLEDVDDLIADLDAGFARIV
MetC (Salmonella typhimurium, UniProt P18949), sequence (P18949 whole entry): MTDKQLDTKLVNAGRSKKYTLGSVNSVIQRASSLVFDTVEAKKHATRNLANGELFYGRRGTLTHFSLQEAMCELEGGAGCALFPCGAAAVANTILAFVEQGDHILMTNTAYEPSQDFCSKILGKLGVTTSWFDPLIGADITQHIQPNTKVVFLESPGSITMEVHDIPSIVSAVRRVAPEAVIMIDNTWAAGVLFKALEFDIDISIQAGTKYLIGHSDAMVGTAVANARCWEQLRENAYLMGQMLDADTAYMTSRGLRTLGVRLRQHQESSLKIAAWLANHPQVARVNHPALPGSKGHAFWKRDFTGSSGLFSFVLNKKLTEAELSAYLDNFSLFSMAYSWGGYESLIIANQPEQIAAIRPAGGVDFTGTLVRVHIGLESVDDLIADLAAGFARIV
MetB (Escherichia coli, UniProt P00935), sequence (P00935 whole entry): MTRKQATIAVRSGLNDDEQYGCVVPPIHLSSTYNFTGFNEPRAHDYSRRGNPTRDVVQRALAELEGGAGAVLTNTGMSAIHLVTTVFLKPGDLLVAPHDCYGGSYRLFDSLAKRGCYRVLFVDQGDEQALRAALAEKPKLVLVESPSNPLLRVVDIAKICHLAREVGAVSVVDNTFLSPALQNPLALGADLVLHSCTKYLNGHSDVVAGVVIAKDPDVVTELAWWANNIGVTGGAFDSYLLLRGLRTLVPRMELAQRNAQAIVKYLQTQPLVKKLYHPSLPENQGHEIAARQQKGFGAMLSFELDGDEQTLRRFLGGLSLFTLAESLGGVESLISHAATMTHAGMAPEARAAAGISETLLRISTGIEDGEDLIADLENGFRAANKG
MetC (Bordetella avium, UniProt Q07703), sequence (Q07703 whole entry): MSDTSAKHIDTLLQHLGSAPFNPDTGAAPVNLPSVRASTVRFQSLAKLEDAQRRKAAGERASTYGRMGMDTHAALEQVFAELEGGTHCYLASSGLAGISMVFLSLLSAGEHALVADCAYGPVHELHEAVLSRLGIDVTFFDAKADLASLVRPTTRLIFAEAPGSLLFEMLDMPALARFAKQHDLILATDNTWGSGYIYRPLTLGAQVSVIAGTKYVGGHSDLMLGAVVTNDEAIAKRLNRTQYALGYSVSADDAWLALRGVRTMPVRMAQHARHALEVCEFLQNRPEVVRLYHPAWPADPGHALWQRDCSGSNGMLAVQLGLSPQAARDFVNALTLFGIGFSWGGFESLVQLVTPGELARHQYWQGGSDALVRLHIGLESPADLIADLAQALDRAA

For `N[C@@H](CCSC[C@H](N)C(=O)O)C(=O)O` [L-cystathionine], the Km ([1]; C. glutamicum MetC, this study) is given as 107 µM, the “Cleavage by MetC” value [1] is given as “complete cleavage” and the Km ([2]; E. coli MetC) is given as 40 µM. The Km [3] was 220 µM and the Km [4] was 70 µM.

In the case of `N[C@@H](CS)C(=O)O` [L-cysteine], the Km [5] is given as 258 µM, the Km [6] is given as 50 µM and the Km [7] is given as 180 µM.

For `N[C@@H](CCSCC[C@H](N)C(=O)O)C(=O)O` [L-homolanthionine, S-[(3S)-3-amino-3-carboxypropyl]-L-homocysteine], the “Cleavage by MetC” value [1] is given as “only poorly cleaved”, the Km ([2]; E. coli MetC) is given as 4540 µM and the Km ([2]; E. coli cystathionase) is given as 4500 µM.

B1: MetB (Corynebacterium glutamicum ATCC 13032) (protein)
chain: MSFDPNTQGFSTASIHAGYEPDDYYGSINTPIYASTTFAQNAPNELRKGYEYTRVGNPTIVALEQTVAALEGAKYGRAFSSGMAATDILFRIILKPGDHIVLGNDAYGGTYRLIDTVFTAWGVEYTVVDTSVVEEVKAAIKDNTKLIWVETPTNPALGITDIEAVAKLTEGTNAKLVVDNTFASPYLQQPLKLGAHAVLHSTTKYIGGHSDVVGGLVVTNDQEMDEELLFMQGGIGPIPSVFDAYLTARGLKTLAVRMDRHCDNAEKIAEFLDSRPEVSTVLYPGLKNHPGHEVAAKQMKRFGGMISVRFAGGEEAAKKFCTSTKLICLAESLGGVESLLEHPATMTHQSAAGSQLEVPRDLVRISIGIEDIEDLLADVEQALNNL
Molecule B1 has a Km [8] of 541 µM.
